{"source": "patent US20090118276A1", "about": "“THIENOPYRIMIDINES, THIENOPYRIDINES, AND PYRROLOPYRIMIDINES AS B-RAF INHIBITORS” (priority 2007, published 2009)", "data": [{"molecular_target": "T1, Flag/GST-tagged recombinant human B-Raf (Homo sapiens, UniProt P15056)", "T1 construct": "Flag; GST; made in house; host or cells: Sf9 insect cells (B-Raf); E. coli (MEK1-GST)", "T1 sequence (P15056 whole entry)": "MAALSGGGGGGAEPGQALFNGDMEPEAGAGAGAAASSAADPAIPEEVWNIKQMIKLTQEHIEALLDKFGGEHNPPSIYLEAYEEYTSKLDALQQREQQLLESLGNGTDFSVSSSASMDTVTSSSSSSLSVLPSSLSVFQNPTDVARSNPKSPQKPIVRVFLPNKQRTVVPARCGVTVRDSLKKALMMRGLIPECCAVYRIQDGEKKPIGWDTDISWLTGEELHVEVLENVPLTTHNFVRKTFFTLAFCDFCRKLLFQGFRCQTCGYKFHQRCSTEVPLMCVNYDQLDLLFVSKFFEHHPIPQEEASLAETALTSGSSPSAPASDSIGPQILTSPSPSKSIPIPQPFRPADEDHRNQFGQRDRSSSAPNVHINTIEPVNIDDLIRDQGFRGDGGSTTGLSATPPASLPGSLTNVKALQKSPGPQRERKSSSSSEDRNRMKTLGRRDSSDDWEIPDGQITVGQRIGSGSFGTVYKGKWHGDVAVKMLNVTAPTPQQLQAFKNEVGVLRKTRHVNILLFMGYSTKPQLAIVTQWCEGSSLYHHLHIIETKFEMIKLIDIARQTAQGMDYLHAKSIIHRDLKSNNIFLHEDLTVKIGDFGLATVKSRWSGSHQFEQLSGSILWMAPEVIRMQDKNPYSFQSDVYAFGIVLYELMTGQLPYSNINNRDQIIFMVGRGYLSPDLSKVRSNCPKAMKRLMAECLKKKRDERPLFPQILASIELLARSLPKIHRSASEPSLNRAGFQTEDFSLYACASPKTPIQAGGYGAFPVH", "assay": "B-Raf Kinase to MEK1 ELISA", "assay_type": "biochemical", "method": "B-Raf Kinase to MEK1 ELISA\nB-Raf1 Kinase Assay Procedure: B-Raf-1 is used to phosphorylate GST-MEK1.\nB-Raf Assay Stock Solutions:\n1. Assay Dilution Buffer (ADB): 20 mM MOPS, pH 7.2, 25 mM β-glycerol phosphate, 5 mM EGTA, 1 mM sodium orthovanadate, 1 mM dithiothreitol, 0.01% Triton X-100.\n2. Magnesium/ATP Cocktail: ADB solution (minus Triton X-100) plus 200 μM cold ATP and 40 mM magnesium chloride.\n4. Active Kinase: Active B-Raf: used at 0.2 nM per assay point.\n8. Anti pMEK Ab (Upstate)\n9. Anti-rabbit Ab/Europium conjugate (Wallac)\n1. Add 25 μl of ADB containing B-Raf and Mek per assay (i.e. per well of a 96 well plate)\n2. Add 25 μl of 0.2 mM ATP and 40 mM magnesium chloride in Magnesium/ATP Cocktail.\n3. Incubate for 45 minutes at RT with occasional shaking.\n4. Transfer this mixture to an anti-GST Ab coated 96 well plate (Nunc Immunosorb plates coated o/n with a-GST. Plate freshly washed 3× with TBS-T before use.\n5. Incubate o/n at 30° C. in cold room.\n6. Wash 3× with TBST, add Anti-Phospho MEK1 (1:1000, dilution depends upon lot)\n7. Incubate for 60 minutes at RT in a shaking incubator\n8. Wash 3× with TBST, add Anti-rabbit Ab/Europium conjugate (Wallac) (1:500, dilution depends upon lot)\n9. Incubate for 60 minutes at RT on a platform shaker.\n10. Wash plate 3× with TBS-T\n11. Add 100 μl of Wallac Delfia Enhancement Solution and shake for 10 minutes.\n12. Read plates in Wallac Victor model Plate Reader.\n13. Collect data analyze in Excel for single point and IC50 determinations.\nThe % inhibition was determined for each compound concentration.", "units": {"IC50": "µM"}, "values": [{"smiles": "CN(C)c1ccc(-n2ccc3c(-c4cccc(NC(=O)c5cccc(C(F)(F)F)c5)c4)ncnc32)cc1", "note": "[Compound 107, N-(3-{7-[4-(dimethylamino)phenyl]-7H-pyrrolo[2,3-d]pyrimidin-4-yl}phenyl)-3-(trifluoromethyl)benzamide]", "IC50": 6.57}, {"smiles": "O=C(Nc1cccc(-c2ncnc3c2cc(-c2ccncc2)n3CCN2CCCC2)c1)c1cccc(C(F)(F)F)c1", "note": "[Compound 108, N-{3-[6-pyridin-4-yl-7-(2-pyrrolidin-1-ylethyl)-7H-pyrrolo[2,3-d]pyrimidin-4-yl]phenyl}-3-(trifluoromethyl)benzamide]", "IC50": 0.0685}, {"smiles": "CN(C)CCCn1c(-c2ccncc2)cc2c(-c3cccc(NC(=O)c4cccc(C(F)(F)F)c4)c3)ncnc21", "note": "[Compound 109, N-(3-{7-[3-(dimethylamino)propyl]-6-pyridin-4-yl-7H-pyrrolo[2,3-d]pyrimidin-4-yl}phenyl)-3-(trifluoromethyl)benzamide]", "IC50": 0.0665}, {"smiles": "CN(C)Cc1ccc(-n2ccc3c(-c4cccc(NC(=O)c5cccc(C(F)(F)F)c5)c4)ncnc32)cc1", "note": "[Compound 111, N-[3-(7-{4-[(dimethylamino)methyl]phenyl}-7H-pyrrolo[2,3-d]pyrimidin-4-yl)phenyl]-3-(trifluoromethyl)benzamide]", "IC50": 0.432}, {"smiles": "O=C(Nc1cccc(-c2ncnc3c2ccn3-c2ccc(CN3CCNCC3)cc2)c1)c1cccc(C(F)(F)F)c1", "note": "[Compound 112, N-(3-{7-[4-(piperazin-1-ylmethyl)phenyl]-7H-pyrrolo[2,3-d]pyrimidin-4-yl}phenyl)-3-(trifluoromethyl)benzamide]", "IC50": 0.191}]}]}
